Experimental data taken from patent publication US10857199B2, “Compounds and methods for increasing hair growth” (The University of Kansas, priority 2014, dated 2020).

What was measured:
[1] = castrated male mice
Protocol: (§1) To exploit this pathway we used B6CBAF1/J hybrid male mice reported to be susceptible to ADA. As a control and to remove background testosterone effects all the B6CBAF1/J hybrid male mice were castrated and split into two groups (n=6). The first group served as controls (Vehicle) and the second experimental group was treated with 5-α-dihydrotestosterone (5α-DHT). The 5α-DHT was administered by sub-dermal transplantation of slow release pellets purchased from Innovative Research of America. The control group was also transplanted with identically formulated placebo pellets (without 5α-DHT). Both pellets were transplanted below the right ear using a small incision that was sealed with staples. Specifically, two 21 day release and one 90 day release pellets containing 10 mg of 5α-DHT respectively were used for each experimental mouse with corresponding placebo pellets for the controls (n=6). Hair loss of the mice and the effects of 5α-DHT were then monitored over 5 months as described below.
FIGS. 8A-8B includes DEXA analysis pictures of representative Vehicle and 5α-DHT male castrated mice showing increased bone and lean mass with treated mice. […] Two-way ANOVA analysis of the temporal weight change show significant differences for 5α-DHT treatment (p<0.0001) and change over time (p<0.0001) with no significant interaction (n=6). This confirms 5α-DHT pellet infusion was effective (see also below).
Detailed quantitative analyses of the DEXA experiments are presented graphically in FIG. 9. […] Total and femur analyses are shown and the numbers shown on the histograms above the asterisks (*) are p values calculated using a two-tailed unpaired t test at 95% confidence intervals. A P<0.05 is considered significant and NS indicates not significant.

[2] = femurs, 3D μCT, castrated male mice
Protocol: as §1

[3] = tested on: hair loss; conditions: castrated male mice
Protocol: as §1

[4] = tested on: hair density; conditions: hair plucked from defined ROI, castrated male mice, vs placebo
Description: A second method was then used to directly quantitate hair density, hair quality and vellus hair occurrence. Specifically, mice were sacrificed and the pelts removed and fixed in buffered formalin for histology. Also, a plastic template with a fixed portal was used to demarcate a defined and identical region of interest (ROI) between the ears and above the shoulder blades (FIG. 12). Hair was then plucked from this region weighed and microscopically analyzed. […] A plastic template with portal removed was used to facilitate hair removal from defined region of interest (ROI). Top pictures comparing control (right) and experimental (left) hairs removed from the ROI. […] The numbers shown on the histograms above the asterisk (*) is the p value calculated using a two-tailed unpaired t test at 95% confidence intervals. A P<0.05 is considered significant.

With `C[C@]12CCC(=O)C[C@@H]1CC[C@@H]1[C@@H]2CC[C@]2(C)[C@@H](O)CC[C@@H]12` [5α-DHT, 5-α-dihydrotestosterone] the “Bone Mineral Content [BMC]” value ([1]; DEXA, vs placebo pellets) was “major increases”, the “Bone mineral Density [BMD]” value ([1]; DEXA, vs placebo pellets) was “major increases” and the lean mass ([1]; DEXA, vs vehicle) was “increased”. The lean/fat mass ratios ([1]; DEXA, vs vehicle) was “increased”, the weight ([1]; sub-dermal slow release pellets, 5 months, vs placebo pellets) was “major increases” and the “cancellous bone and trabecular architecture at the top of the epiphyses” value [2] was “major increases”. The “hair loss from head and shoulder blade region (inverse integrated pixel density)” value ([3]; 5 months, inflection point after 2 months) was “accelerated hair loss”, the “hair at the pellet implant site” value ([3]; photographs, vs placebo pellet) was “major hair loss” and the “hair density, size and quality” value [4] was “significantly reduced”.
